Structures can show the parent of a compound that is named as a salt.
Assay: MIC of test compounds against various organisms
Assay type: cell-based
Details: against one or more of the above range of gram positive and gram negative bacteria
Method: The MIC (μg/ml) of test compounds against various organisms was determined:
S. aureus Oxford, S. aureus WCUH29, S. pneumoniae 1629, S. pneumoniae N1387, S. pneumoniae ERY 2, E. faecalis 1, E. faecalis 7, H. influenzae Q1, H. influenzae NEMC1, M. catarrhalis 1502, E. coil 7623, E.coli 120.

Structure (SMILES)	MIC [µg/mL]
CCOC(=O)C1CN(C[C@H](O)c2ccnc3ccc(OC)cc23)CCC1NCC(=O)Nc1ccccc1 (mixture of isomers) [Example 2, cis-2-{1-[2-(R)-Hydroxy-2-(6-methoxy-quinolin-4-yl)-ethyl]-3-(R/S)-ethoxycarbonyl-piperidin-4-(S/R)-ylamino}-N-phenyl-acetamide dioxalate]	≤ 0.25
COc1ccc2nccc([C@@H](O)CN3CCC(NCC(=O)Nc4ccccc4)C(CO)C3)c2c1 (mixture of isomers) [Example 3, cis-2-{1-[2-(R)-Hydrxy-2-(6-methoxy-quinolin-4-yl)-ethyl]-3-(R/S)-hydroxymethyl-piperidin-4-(S/R)-ylamino}-N-phenyl-acetamide dioxalate]	≤ 2
COc1ccc2nccc([C@@H](O)CN3CCC(NCC(=O)Nc4ccccc4)C(C(N)=O)C3)c2c1 (mixture of isomers) [Example 4, cis-2-{1-[2-(R)-Hydroxy-2-(6-methoxy-quinolin-4-yl)-ethyl]-3-(R/S)-aminocarbonyl-piperidin-4-(S/R)-ylamino}-N-phenyl-acetamide dioxalate]	≤ 2
CCOC(=O)C1CN(C(=O)Nc2ccnc3ccc(OC)cc23)CCC1NCC(=O)Nc1ccccc1 (racemic) [Example 5, cis-3-(R/S)-Ethoxycarbonyl-4-(S/R)-(phenylcarbamoylmethyl-amino)-piperidine-1-carboxylic acid (6methoxy-quinolin-4-yl)-amide oxalate]	≤ 32
COc1ccc2nccc(NC(=O)N3CCC(NCC(=O)Nc4ccccc4)C(CO)C3)c2c1 (racemic) [Example 6, cis-3-(R/S)-Hydroxymethyl-4-(S/R)-(phenylcarbamoylmethyl-amino)-piperidine-1-carboxylic acid (6-methoxy-quinolin-4-yl)-amide oxalate]	≤ 32
COc1ccc2nccc(NC(=O)N3CCC(NCCCc4ccco4)C(CO)C3)c2c1 (racemic) [Example 53, cis-4-(S/R)-[3-(2-Furyl)-propyl]amino-3-(R/S)-hydroxymethyl-[6-methoxyquinolin-4-yl)]aminocarbonylpiperidine oxalate]	≤ 2
COc1ccc2nccc([C@@H](O)CN3CCC(NCC(=O)Nc4ccccc4)CC3)c2c1 [Example 1, 2-{1-[(R)-2-Hydroxy-2-(6-methoxy-quinoin-4-yl)-ethyl]-piperidin-4-ylamino}-N-phenyl-acetamide dioxalate]	≤ 0.25
COc1ccc2nccc([C@@H](O)CN3CCC(N(C)CC(=O)Nc4ccccc4)CC3)c2c1.O=C(O)C(=O)O.O=C(O)C(=O)O [Example 12, 2-{1-[(R)-2-Hydroxy-2-(6-methoxy-quinolin-4-yl)-ethyl]-piperidin-4-yl-N-methylamino}-N-phenyl-acetamide dioxalate]	≤ 32
COc1ccc2nccc([C@@H](O)CN3CCC(NCC(=O)Nc4ccccn4)CC3)c2c1 [Example 13, 2-{1-[(R)-2-Hydroxy-2-(6-methoxy-quinolin-4-yl)-ethyl]-piperidin-4-ylamino}-N-pyridin-2-yl-acetamide dioxalate]	≤ 0.25
COc1ccc2nccc([C@@H](O)CN3CCC(NCC(=O)Nc4ccc(F)c(F)c4)CC3)c2c1 [Example 17, N-(3,4-Difluoro-phenyl)-2-{1-[(R)-2-hydroxy-2-(6-methoxy-quinolin-4-yl-ethyl]-piperidin-4-ylamino)-acetamide dioxalate]	≤ 0.25
COc1ccc2nccc([C@@H](O)CN3CCC(NCC(=O)Nc4ccc(Cl)c(Cl)c4)CC3)c2c1 [Example 18, N-(3,4-Dichloro-phenyl)-2-{1-[(R)-2-hydroxy-2-(6-methoxy-quinolin-4-yl-ethyl]-piperidin-4-ylamino)-acetamide dioxalate]	≤ 2
COc1ccc2nccc([C@@H](O)CN3CCC(NCC(=O)Nc4ccccc4C#N)CC3)c2c1 [Example 19, N-(2Cyano-phenyl)-2-{1-[(R)-2-hydroxy-2-(6-methoxy-quinolin-4-yl-ethyl]-piperidin-4-ylamino)-acetamide dioxalate]	≤ 0.25
COc1ccc2nccc([C@@H](O)CN3CCC(NCC(=O)Nc4ccccc4[N+](=O)[O-])CC3)c2c1 [Example 20, 2-{1-[(R)-2-Hydroxy-2-(6-methoxy-quinolin-4-yl-ethyl]-piperidin-4-ylamino}-N-(2nitro-phenyl)-acetamide dioxalate]	≤ 0.25
COc1ccc2nccc([C@@H](O)CN3CCC(NCC(=O)Nc4cc(F)cc(F)c4)CC3)c2c1 [Example 29, N-(3,5-Difluoro-phenyl)-2-{1-[(R)-2-hydroxy-2-(6-methoxy-quinolin-4-yl)-ethyl]-piperidin-4-ylamino)-acetamide dioxalate]	≤ 0.25
COc1ccc2nccc([C@@H](O)CN3CCC(NCC(=O)Nc4cccc(C#N)c4)CC3)c2c1 [Example 34, N-[3-Cyano-phenyl]-2-{1-[(R)-2-hydroxy-2-(6-methoxy-quinolin-4-yl)-ethyl]-piperidin-4-ylamino)-acetamide dioxalate]	≤ 32
COc1ccc2nccc([C@@H](O)CN3CCC(NCC(=O)Nc4ccc(F)c([N+](=O)[O-])c4)CC3)c2c1 [Example 36, N-[4-Fluoro-3-nitro-phenyl]-2-{1-[(R)-2-hydroxy-2-(6-methoxyquinolin-4-ethyl]-piperidin-4-ylamino)-acetamide dioxalate]	≤ 32
COC(=O)C1(NCC(=O)Nc2ccccc2)CCN(C[C@H](O)c2ccnc3ccc(OC)cc23)CC1.O=C(O)C(=O)O.O=C(O)C(=O)O [Example 37, 2-{1-[2-(R)-Hydroxy-2-(6-methoxy-quinolin-4-yl)-ethyl]-4-methoxycarbonyl-piperidin-4-ylamino)-N-phenyl-acetamide dioxalate]	≤ 32
COc1ccc2nccc([C@@H](O)CN3CCC(CO)(NCC(=O)Nc4ccccc4)CC3)c2c1 [Example 38, 2-{1-[2-(R)-Hydroxy-2-(6-methoxy-quinolin-4-yl)-ethyl]-4-hydroxymethyl-piperidin-4-ylamino}-N-phenyl-acetamide dioxalate]	≤ 2
COc1ccc2nccc([C@@H](O)CN3CCC(NCC(=O)Nc4ccc(F)cc4)CC3)c2c1 [Example 41, N-(4-Fluoro-phenyl)-2-{1-[(R)-2-hydroxy-2-(6-methoxy-quinlin-4-yl)-ethyl]-piperidin-4-ylamino}-acetamide dioxalate]	≤ 2
COc1ccc2nccc(CCN3CCC(NCC(=O)Nc4ccc(F)cc4)CC3)c2c1 [Example 42, N-(4-Fluoro-phenyl)-2-{1-[2-(6-methoxy-quinolin-4-yl)-ethyl]-piperidin-4-ylamino}-acetamide dioxalate]	≤ 2
COc1ccc2nccc([C@@H](O)CN3CCC(NC/C=C/c4ccccc4[N+](=O)[O-])CC3)c2c1 [Example 54, 4-[trans-1-(2-Nitrophenyl)-3-propeny]amino-1-[2-(R)-hydroxy-2-(6-methoxyquinolin-4-yl)]ethylpiperidine dioxalate]	≤ 0.25
COc1ccc2nccc([C@@H](O)CN3CCC(NC(=O)/C=C/c4ccco4)CC3)c2c1 [Example 72, (E)-3-Furan-2-yl-N-{1-[(R)-2-hydroxy-2-(6-methoxyquinolin-4-yl)-ethyl]-piperidin-4-yl}-acrylamide oxalate]	≤ 2
COc1ccc2nccc([C@@H](O)CN3CCC(NC/C=C/c4nccs4)CC3)c2n1 [Example 73, 4-[trans-1-(2-Thiazolyl)-3-propenyl]amino-1-[2-(R)-hydroxy-2-(6-methoxy-[1,5]-naphthyridin-4-yl)]ethylpiperidine dimethanesulphonate]	≤ 0.25
COc1cc(F)c2nccc([C@@H](O)CN3CCC(NCCOc4ccccn4)CC3)c2c1 [Example 74, 4-[2-(Pyridin-2-yloxy)-ethylamino]-1-[2-(R)-hydroxy-2-(8-fluoro-6-methoxyquinolin-4-yl)]ethylpiperidine dioxalate]	≤ 0.25
COc1ccc2nccc([C@@H](O)CN3CCC(NCCCn4cc(F)c(=O)[nH]c4=O)CC3)c2c1 [Example 75, 5-Fluoro-1-(3-{1-[(R)-2-hydroxy-2-(6-methoxy-quinolin-4-yl)-ethyl]piperidin-4-ylamino}-propyl)-1H-pyrimidine-2,4-dione dioxolate]	≤ 32

Source: patent US20040053928A1, “Quinoline derivatives as antibacterials” (priority 2000, published 2004)
